Results: US11932624B2, “MDM2 degraders and uses thereof” (Kymera Therapeutics, Inc., priority 2020, dated 2024)

Tested on: RS411 cells
Experiment: Cell Viability CTG Assay (CellTiter Glo) in RS411 cells
Assay type: cell-based
Conditions: Homo sapiens
Description: Example 23. Cell Viability CTG Assay
Day 0: Compounds or DMSO 60 nL were stamped to the cell plate as the platemap. RS411 cells were centrifuged at 800 rpm for 5 min, suspended with culture medium, and counted with Countess (Invitrogen). The cell density was adjusted to the recommend information. 30 μL of cell solution (1000 cells/well) was added to the assay plate as the platemap and 30 uL of media was added to column 2 and column 23 as the platemap. The plate was spun down briefly. The final concentration of the compounds started at 10 μM (3 fold dilution and 11 doses) and final DMSO concentration was 0.2%. The plate was spun down briefly and incubated at 37° C., 5% CO2 for 1-4 days.
30 μL CellTiter Glo reagent was added to each well and the plate was centrifuged at 1000 rpm for 30 sec. The plate was shaken for 1 min and centrifuged at 1000 rpm for 30 sec. The plate was incubated at RT for 10 min to stabilize the luminescent signal and the luminescence was read by EnVision.
The letter codes for IC50 indicate the concentration of compound required to affect 50% of cells: A (<0.05 μM), B (0.05-0.1 μM), C (0.1-0.5 μM), D (0.5-1.0 μM), and E (>1.0 μM).

IC50 (RS4-11, 96 h, duration 4 days) [µM]	SMILES	further results
0.05 to 0.1	CCOc1cc(C(C)(C)C)ccc1C1=N[C@@H](c2ccc(Cl)cc2)[C@@H](c2ccc(Cl)cc2)N1C(=O)N1CCN(CC#Cc2cccc3c2CN(C2CCC(=O)NC2=O)C3=O)CC1 (stereo partly drawn) [I-4, 3-[4-[3-[4-[(4S,5R)-2-(4-tert-butyl-2-ethoxy-phenyl)-4,5-bis(4-chlorophenyl)-4,5-dihydroimidazole-1-carbonyl]piperazin-1-yl]prop-1-ynyl]-1-oxo-isoindolin-2-yl]piperidine-2,6-dione]	
> 1	CC(C)[C@@H](CS(=O)(=O)C(C)C)N1C(=O)[C@@](C)(CC(=O)Nc2ccc(C(=O)NCCCOCCCN)cc2)C[C@H](c2cccc(Cl)c2)[C@H]1c1ccc(Cl)cc1 [I-5, N-[3-(3-aminopropoxy)propyl]-4-[[2-[(3R,5R,6S)-5-(3-chlorophenyl)-6-(4-chlorophenyl)-1-[(1S)-1-(isopropylsulfonylmethyl)-2-methyl-propyl]-3-methyl-2-oxo-3-piperidyl]acetyl]amino]benzamide]	
0.1 to 0.5	CC(C)[C@@H](CS(=O)(=O)C(C)C)N1C(=O)[C@@](C)(CC(=O)Nc2ccc(C(=O)NCCOCCOCCOCCNc3cccc4c3C(=O)N(C3CCC(=O)NC3=O)C4=O)cc2)C[C@H](c2cccc(Cl)c2)[C@H]1c1ccc(Cl)cc1 (stereo partly drawn) [I-6, 4-[[2-[(3R,5R,6S)-5-(3-chlorophenyl)-6-(4-chlorophenyl)-1-[(1S)-1-(isopropylsulfonylmethyl)-2-methyl-propyl]-3-methyl-2-oxo-3-piperidyl]acetyl]amino]-N-[2-[2-[2-[2-[[2-(2,6-dioxo-3-piperidyl)-1,3-dioxo-isoindolin-4-yl]amino]ethoxy]ethoxy]ethoxy]ethyl]benzamide]	
> 1	COc1cc(C(=O)NCCCOCCCN)ccc1NC(=O)[C@@H]1N[C@@H](CC(C)(C)C)[C@](C#N)(c2ccc(Cl)cc2F)[C@H]1c1cccc(Cl)c1F [I-7]	
> 1	CC(C)[C@@H](CS(=O)(=O)C(C)C)N1C(=O)[C@@](C)(CC(=O)Nc2ccc(C(=O)NCCCCCCCNC(=O)c3ccc(NC(=O)C[C@@]4(C)C[C@H](c5cccc(Cl)c5)[C@@H](c5ccc(Cl)cc5)N([C@H](CS(=O)(=O)C(C)C)C(C)C)C4=O)cc3)cc2)C[C@H](c2cccc(Cl)c2)[C@H]1c1ccc(Cl)cc1 [I-8, 4-[2-[(3R,5R,6S)-5-(3-chlorophenyl)-6-(4-chlorophenyl)-3-methyl-1-[(2S)-3-methyl-1-(propane-2-sulfonyl)butan-2-yl]-2-oxopiperidin-3-yl]acetamido]-N-[7-[(4-[2-[(3R,5R,6S)-5-(3-chlorophenyl)-6-(4-chlorophenyl)-3-methyl-1-[(2S)-3-methyl-1-(propane-2-sulfonyl)butan-2-yl]-2-oxopiperidin-3-yl]acetamido]phenyl)formamido]heptyl]benzamide]	
< 0.05	Cn1c(=O)n(C2CCC(=O)NC2=O)c2ccc(CCCCCNC(=O)c3ccc(NC(=O)[C@@H]4NC5(CCCCC5)[C@@]5(C(=O)Nc6cc(Cl)ccc65)[C@H]4c4cccc(Cl)c4F)cc3)cc21 (some centres unmarked) [I-9]	
0.1 to 0.5	Cc1ncsc1-c1ccc(CNC(=O)[C@@H]2C[C@@H](O)CN2C(=O)[C@@H](NC(=O)CCCCCCCNC(=O)C[C@@]2(C)C[C@H](c3cccc(Cl)c3)[C@@H](c3ccc(Cl)cc3)N([C@H](CS(=O)(=O)C(C)C)C(C)C)C2=O)C(C)(C)C)cc1 [I-10]	
> 1	Cc1ncsc1-c1ccc(CNC(=O)[C@@H]2C[C@@H](O)CN2C(=O)[C@@H](NC(=O)CCCNC(=O)C[C@@]2(C)C[C@H](c3cccc(Cl)c3)[C@@H](c3ccc(Cl)cc3)N([C@H](CS(=O)(=O)C(C)C)C(C)C)C2=O)C(C)(C)C)cc1 [I-11]	
< 0.05	CC(C)[C@@H](CS(=O)(=O)C(C)C)N1C(=O)[C@@](C)(CC(=O)Nc2ccc(C(=O)NCCCCCc3ccc4c(c3)n(C)c(=O)n4C3CCC(=O)NC3=O)cc2)C[C@H](c2cccc(Cl)c2)[C@H]1c1ccc(Cl)cc1 (some centres unmarked) [I-14]	
< 0.05	COc1cc(C(=O)NCCCCCc2ccc3c(c2)n(C)c(=O)n3C2CCC(=O)NC2=O)ccc1NC(=O)[C@@H]1N[C@@H](CC(C)(C)C)[C@](C#N)(c2ccc(Cl)cc2F)[C@H]1c1cccc(Cl)c1F (some centres unmarked) [I-16]	
< 0.05	COc1cc(C(=O)NCCCC#Cc2ccc3c(c2)n(C)c(=O)n3C2CCC(=O)NC2=O)ccc1NC(=O)[C@@H]1N[C@@H](CC(C)(C)C)[C@](C#N)(c2ccc(Cl)cc2F)[C@H]1c1cccc(Cl)c1F (some centres unmarked) [I-17]	
< 0.05	COc1cc(C(=O)NCCCCCCCC(=O)N[C@H](C(=O)N2C[C@H](O)C[C@H]2C(=O)NCc2ccc(-c3scnc3C)cc2)C(C)(C)C)ccc1NC(=O)[C@@H]1N[C@@H](CC(C)(C)C)[C@](C#N)(c2ccc(Cl)cc2F)[C@H]1c1cccc(Cl)c1F [I-19]	
0.1 to 0.5	COc1cc(C(=O)NCCCC(=O)N[C@H](C(=O)N2C[C@H](O)C[C@H]2C(=O)NCc2ccc(-c3scnc3C)cc2)C(C)(C)C)ccc1NC(=O)[C@@H]1N[C@@H](CC(C)(C)C)[C@](C#N)(c2ccc(Cl)cc2F)[C@H]1c1cccc(Cl)c1F [I-20]	
0.05 to 0.1	CC(C)[C@@H](CS(=O)(=O)C(C)C)N1C(=O)[C@@](C)(CC(=O)NCCCCCCCCc2ccc3c(c2)n(C)c(=O)n3C2CCC(=O)NC2=O)C[C@H](c2cccc(Cl)c2)[C@H]1c1ccc(Cl)cc1 (some centres unmarked) [I-21]	
> 1	CC(C)[C@@H](CS(=O)(=O)C(C)C)N1C(=O)[C@@](C)(CC(=O)NCCCCCCCCCCCNC(=O)C[C@@]2(C)C[C@H](c3cccc(Cl)c3)[C@@H](c3ccc(Cl)cc3)N([C@H](CS(=O)(=O)C(C)C)C(C)C)C2=O)C[C@H](c2cccc(Cl)c2)[C@H]1c1ccc(Cl)cc1 [I-23]	
0.05 to 0.1	CC(C)[C@@H](CS(=O)(=O)C(C)C)N1C(=O)[C@@](C)(CC(=O)NCCCCCCC#Cc2cccc3c2CN(C2CCC(=O)NC2=O)C3=O)C[C@H](c2cccc(Cl)c2)[C@H]1c1ccc(Cl)cc1 (some centres unmarked) [I-26]	
	CC(C)[C@@H](CS(=O)(=O)C(C)C)N1C(=O)[C@@](C)(CC(=O)Nc2ccc(C(=O)NCCCC#Cc3cccc4c3CN(C3CCC(=O)NC3=O)C4=O)cc2)C[C@H](c2cccc(Cl)c2)[C@H]1c1ccc(Cl)cc1 (some centres unmarked) [I-27]	IC50 (RS4-11, 72 h, duration 3 days): 0.1 to 0.5 µM
	COc1cc(C(=O)NCCCCCc2cccc3c2n(C)c(=O)n3C2CCC(=O)NC2=O)ccc1NC(=O)[C@@H]1N[C@@H](CC(C)(C)C)[C@](C#N)(c2ccc(Cl)cc2F)[C@H]1c1cccc(Cl)c1F (some centres unmarked) [I-28]	IC50 (RS4-11, 72 h, duration 3 days): < 0.05 µM
< 0.05	O=C1CCC(N2Cc3c(C#CCCCNC(=O)c4ccc(NC(=O)[C@@H]5NC6(CCCCC6)[C@@]6(C(=O)Nc7cc(Cl)ccc76)[C@H]5c5cccc(Cl)c5F)cc4)cccc3C2=O)C(=O)N1 (some centres unmarked) [I-29]	
< 0.05	COc1cc(C(=O)NCCCC#Cc2cccc3c2n(C)c(=O)n3C2CCC(=O)NC2=O)ccc1NC(=O)[C@@H]1N[C@@H](CC(C)(C)C)[C@](C#N)(c2ccc(Cl)cc2F)[C@H]1c1cccc(Cl)c1F (some centres unmarked) [I-30]	
< 0.05	COc1cc(C(=O)NCCCC#Cc2cccc3c2CN(C2CCC(=O)NC2=O)C3=O)ccc1NC(=O)[C@@H]1N[C@@H](CC(C)(C)C)[C@](C#N)(c2ccc(Cl)cc2F)[C@H]1c1cccc(Cl)c1F (some centres unmarked) [I-31]	
0.1 to 0.5	COc1cc(C(=O)NCCCCCCCCNC(=O)c2ccc(NC(=O)[C@@H]3N[C@@H](CC(C)(C)C)[C@](C#N)(c4ccc(Cl)cc4F)[C@H]3c3cccc(Cl)c3F)c(OC)c2)ccc1NC(=O)[C@@H]1N[C@@H](CC(C)(C)C)[C@](C#N)(c2ccc(Cl)cc2F)[C@H]1c1cccc(Cl)c1F [I-32]	
> 1	COc1cc(C(=O)NCCOCCOCCNC(=O)c2ccc(NC(=O)[C@@H]3N[C@@H](CC(C)(C)C)[C@](C#N)(c4ccc(Cl)cc4F)[C@H]3c3cccc(Cl)c3F)c(OC)c2)ccc1NC(=O)[C@@H]1N[C@@H](CC(C)(C)C)[C@](C#N)(c2ccc(Cl)cc2F)[C@H]1c1cccc(Cl)c1F [I-33]	
	CCN1[C@@H](C(=O)NC23CCC(C(=O)NCCCCCc4ccc5c(c4)n(C)c(=O)n5C4CCC(=O)NC4=O)(CC2)CC3)[C@H](c2cccc(Cl)c2F)[C@]2(C(=O)Nc3cc(Cl)ccc32)C12CCCCC2 (some centres unmarked) [I-42]	IC50 (RS4-11, 24 h, duration 1 day): < 0.05 µM
	Cn1c(=O)n(C2CCC(=O)NC2=O)c2cccc(C#CCOC3CCN(C(=O)c4ccc(NC(=O)[C@@H]5NC6(CCCCC6)[C@@]6(C(=O)Nc7cc(Cl)ccc76)[C@H]5c5cccc(Cl)c5F)cc4)CC3)c21 (stereo partly drawn) [I-43, (3′R,4'S,5′R)-6″-chloro-4′-(3-chloro-2-fluorophenyl)-N-(4-(4-((3-(1-(2,6-dioxopiperidin-3-yl)-3-methyl-2-oxo-2,3-dihydro-1H-benzo[d]imidazol-4-yl)prop-2-yn-1-yl)oxy)piperidine-1-carbonyl)phenyl)-2″-oxodispiro[cyclohexane-1,2′-pyrrolidine-3′,3″-indoline]-5′-carboxamide]	IC50 (RS4-11, 24 h, duration 1 day): < 0.05 µM
	Cn1c(=O)n(C2CCC(=O)NC2=O)c2cccc(OC3CC4(CCN(C(=O)c5ccc(NC(=O)[C@@H]6NC7(CCCCC7)[C@@]7(C(=O)Nc8cc(Cl)ccc87)[C@H]6c6cccc(Cl)c6F)cc5)CC4)C3)c21 (some centres unmarked) [I-44]	IC50 (RS4-11, 24 h, duration 1 day): < 0.05 µM
	CN(C(=O)c1ccc(NC(=O)[C@@H]2NC3(CCCCC3)[C@@]3(C(=O)Nc4cc(Cl)ccc43)[C@H]2c2cccc(Cl)c2F)cc1)C1CCC2(CC1)CC(Cc1cccc3c1n(C)c(=O)n3C1CCC(=O)NC1=O)C2 (some centres unmarked) [I-45]	IC50 (RS4-11, 24 h, duration 1 day): 0.1 to 0.5 µM

SMILES	IC50 (RS4-11, 96 h, duration 4 days) [µM]	further results
Cc1ncsc1-c1ccc(CNC(=O)[C@@H]2C[C@@H](O)CN2C(=O)[C@@H](NC(=O)CCCCCCCNC(=O)c2ccc(NC(=O)[C@@H]3NC4(CCCCC4)[C@@]4(C(=O)Nc5cc(Cl)ccc54)[C@H]3c3cccc(Cl)c3F)cc2)C(C)(C)C)cc1 [I-12]	0.05 to 0.1	
Cc1ncsc1-c1ccc(CNC(=O)[C@@H]2C[C@@H](O)CN2C(=O)[C@@H](NC(=O)CCCNC(=O)c2ccc(NC(=O)[C@@H]3NC4(CCCCC4)[C@@]4(C(=O)Nc5cc(Cl)ccc54)[C@H]3c3cccc(Cl)c3F)cc2)C(C)(C)C)cc1 [I-13]	0.5 to 1	
